Test results taken from ChEMBL document CHEMBL3779786, “Tabtoxinine--lactam is a stealth -lactam antibiotic that evades -lactamase-mediated antibiotic resistance” (Medchemcomm, 2016).
Converted amounts (≈) assume the structure as drawn. The source made the active and inactive calls. No cut-off for these calls is given here.

Legend:
Escherichia coli [1] = assay: Antibacterial activity against Escherichia coli BL21(DE3) expressing beta lactamase CTX-M-9 with no leader sequence in glutamine-free minimal media after 24 hrs by broth microdilution method; assay type: functional
Escherichia coli [2] = assay: Antibacterial activity against Escherichia coli BL21(DE3) in glutamine-free minimal media after 24 hrs by broth microdilution method; assay type: functional
Escherichia coli [3] = assay: Antibacterial activity against Escherichia coli DH5alpha expressing beta lactamase SHV-12 in glutamine-free minimal media after 24 hrs by broth microdilution method; assay type: functional; details: DH5[alpha]
Escherichia coli [4] = assay: Antibacterial activity against Escherichia coli DH5alpha in glutamine-free minimal media after 24 hrs by broth microdilution method; assay type: functional; details: DH5[alpha]
Escherichia coli [5] = assay: Antibacterial activity against Escherichia coli DH5alpha expressing beta lactamase NDM-1 in glutamine-free minimal media after 24 hrs by broth microdilution method; assay type: functional; details: DH5[alpha]
Escherichia coli [6] = assay: Antibacterial activity against Escherichia coli BL21(DE3) expressing beta lactamase CTX-M-9 in glutamine-free minimal media after 24 hrs by broth microdilution method; assay type: functional
Escherichia coli [7] = assay: Antibacterial activity against Escherichia coli DH5alpha expressing beta lactamase TEM-1 in glutamine-free minimal media after 24 hrs by broth microdilution method; assay type: functional; details: DH5[alpha]
[8] = Drug metabolism assessed as 1 uM Escherichia coli DH5alpha beta lactamase TEM-1 mediated metabolite formation at 1 mM after 5 hrs by HPLC analysis; assay type: ADME; details: escherichia coli dh5[alpha], 1000 µM
[9] = Drug metabolism assessed as 1 uM Escherichia coli DH5alpha beta lactamase CTX-M-9 mediated metabolite formation at 1 mM after 5 hrs by HPLC analysis; assay type: ADME; details: escherichia coli dh5[alpha], 1000 µM
Escherichia coli [10] = assay: Antibacterial activity against Escherichia coli DH5alpha expressing beta lactamase KPC-3 in glutamine-free minimal media after 24 hrs by broth microdilution method; assay type: functional; details: DH5[alpha]
[11] = Drug metabolism assessed as 2 nM Escherichia coli DH5alpha beta lactamase CTX-M-9 mediated metabolite formation at 1 mM after 30 mins by LCMS analysis; assay type: ADME; details: escherichia coli dh5[alpha], 0.5 h, 1000 µM
Escherichia coli [12] = assay: Antibacterial activity against Escherichia coli DH5alpha expressing beta lactamase OXA-24/40 in glutamine-free minimal media after 24 hrs by broth microdilution method; assay type: functional; details: DH5[alpha]
Escherichia coli [13] = assay: Antibacterial activity against Escherichia coli BL21(DE3) expressing beta lactamase TEM-1 with no leader sequence in glutamine-free minimal media after 24 hrs by broth microdilution method; assay type: functional
Escherichia coli [14] = assay: Bactericidal activity against Escherichia coli; assay type: functional, organism-based
[15] = Drug metabolism assessed as 2 nM Escherichia coli DH5alpha beta lactamase TEM-1 mediated metabolite formation at 1 mM after 30 mins by HPLC analysis; assay type: ADME; details: escherichia coli dh5[alpha], 0.5 h, 1000 µM
[16] = Drug metabolism assessed as 1 uM Escherichia coli DH5alpha beta lactamase CTX-M-9 mediated metabolite formation at 1 mM after 5 hrs by LCMS analysis; assay type: ADME; details: escherichia coli dh5[alpha], 1000 µM
Escherichia coli [17] = assay: Antibacterial activity against Escherichia coli BL21(DE3) expressing beta lactamase TEM-64 in glutamine-free minimal media after 24 hrs by broth microdilution method; assay type: functional
Escherichia coli [18] = assay: Antibacterial activity against Escherichia coli in glutamine containing nutrient broth at 0.06 to 128 uM; assay type: functional, organism-based
[19] = Drug metabolism assessed as 1 uM Escherichia coli DH5alpha beta lactamase TEM-1 mediated metabolite formation at 1 mM after 5 hrs by LCMS analysis; assay type: ADME; details: escherichia coli dh5[alpha], 1000 µM
[20] = Drug metabolism assessed as 2 nM Escherichia coli DH5alpha beta lactamase TEM-1 mediated metabolite formation at 1 mM after 30 mins by LCMS analysis; assay type: ADME; details: escherichia coli dh5[alpha], 0.5 h, 1000 µM
Escherichia coli [21] = assay: Antibacterial activity against Escherichia coli DH5alpha expressing beta lactamase VIM-2 in glutamine-free minimal media after 24 hrs by broth microdilution method; assay type: functional; details: DH5[alpha]
Escherichia coli [22] = assay: Antibacterial activity against Escherichia coli BL21(DE3) expressing beta lactamase TEM-1 in glutamine-free minimal media after 24 hrs by broth microdilution method; assay type: functional
[23] = Drug metabolism assessed as 2 nM Escherichia coli DH5alpha beta lactamase CTX-M-9 mediated metabolite formation at 1 mM after 30 mins by HPLC analysis; assay type: ADME; details: escherichia coli dh5[alpha], 0.5 h, 1000 µM
Escherichia coli [24] = assay: Antibacterial activity against Escherichia coli DH5alpha expressing beta lactamase SHV-5 in glutamine-free minimal media after 24 hrs by broth microdilution method; assay type: functional; details: DH5[alpha]
Staphylococcus aureus = assay: Bacteriostatic activity against Staphylococcus aureus in glutamine-free minimal media; assay type: functional, organism-based
Escherichia coli [25] = assay: Antibacterial activity against Escherichia coli DH5alpha expressing beta lactamase CTX-M-15 in glutamine-free minimal media after 24 hrs by broth microdilution method; assay type: functional; details: DH5[alpha]
Escherichia coli [26] = assay: Antibacterial activity against Escherichia coli DH5alpha expressing beta lactamase TEM-24 in glutamine-free minimal media after 24 hrs by broth microdilution method; assay type: functional; details: DH5[alpha]
[27] = Drug level assessed as 2 nM Escherichia coli DH5alpha beta lactamase TEM-1 mediated compound formation treated with benzyl penicillin at 1 mM after 30 mins by HPLC analysis; assay type: ADME; details: escherichia coli dh5[alpha], 0.5 h, 1000 µM
[28] = Drug level assessed as 1 uM Escherichia coli DH5alpha beta lactamase TEM-1 mediated compound formation treated with benzyl penicillin at 1 mM after 5 hrs by HPLC analysis; assay type: ADME; details: escherichia coli dh5[alpha], 1000 µM
[29] = Drug level assessed as 2 nM Escherichia coli DH5alpha beta lactamase CTX-M-9 mediated compound formation treated with benzyl penicillin at 1 mM after 30 mins by HPLC analysis; assay type: ADME; details: escherichia coli dh5[alpha], 0.5 h, 1000 µM
[30] = Drug level assessed as 1 uM Escherichia coli DH5alpha beta lactamase CTX-M-9 mediated compound formation treated with benzyl penicillin at 1 mM after 5 hrs by HPLC analysis; assay type: ADME; details: escherichia coli dh5[alpha], 1000 µM
[31] = Drug level assessed as 2 nM Escherichia coli DH5alpha beta lactamase TEM-1 mediated compound formation treated with benzyl penicillin at 1 mM after 30 mins by LCMS analysis; assay type: ADME; details: escherichia coli dh5[alpha], 0.5 h, 1000 µM
[32] = Drug level assessed as 1 uM Escherichia coli DH5alpha beta lactamase CTX-M-9 mediated compound formation treated with benzyl penicillin at 1 mM after 5 hrs by LCMS analysis; assay type: ADME; details: escherichia coli dh5[alpha], 1000 µM
[33] = Drug level assessed as 2 nM Escherichia coli DH5alpha beta lactamase CTX-M-9 mediated compound formation treated with benzyl penicillin at 1 mM after 30 mins by LCMS analysis; assay type: ADME; details: escherichia coli dh5[alpha], 0.5 h, 1000 µM
[34] = Drug level assessed as 1 uM Escherichia coli DH5alpha beta lactamase TEM-1 mediated compound formation treated with benzyl penicillin at 1 mM after 5 hrs by LCMS analysis; assay type: ADME; details: escherichia coli dh5[alpha], 1000 µM
[35] = Drug metabolism assessed as 1 uM Escherichia coli DH5alpha beta lactamase TEM-1 mediated formation of benzyl penicilloic acid at 1 mM after 5 hrs by LCMS analysis; assay type: ADME; details: escherichia coli dh5[alpha], 1000 µM
[36] = Drug metabolism assessed as 2 nM Escherichia coli DH5alpha beta lactamase CTX-M-9 mediated formation of benzyl penicilloic acid at 1 mM after 30 mins by LCMS analysis; assay type: ADME; details: escherichia coli dh5[alpha], 0.5 h, 1000 µM
[37] = Drug metabolism assessed as 1 uM Escherichia coli DH5alpha beta lactamase CTX-M-9 mediated formation of benzyl penicilloic acid at 1 mM after 5 hrs by HPLC analysis; assay type: ADME; details: escherichia coli dh5[alpha], 1000 µM
[38] = Drug metabolism assessed as 2 nM Escherichia coli DH5alpha beta lactamase CTX-M-9 mediated formation of benzyl penicilloic acid at 1 mM after 30 mins by HPLC analysis; assay type: ADME; details: escherichia coli dh5[alpha], 0.5 h, 1000 µM
[39] = Drug metabolism assessed as 1 uM Escherichia coli DH5alpha beta lactamase CTX-M-9 mediated formation of benzyl penicilloic acid at 1 mM after 5 hrs by LCMS analysis; assay type: ADME; details: escherichia coli dh5[alpha], 1000 µM
[40] = Drug metabolism assessed as 2 nM Escherichia coli DH5alpha beta lactamase TEM-1 mediated formation of benzyl penicilloic acid at 1 mM after 30 mins by LCMS analysis; assay type: ADME; details: escherichia coli dh5[alpha], 0.5 h, 1000 µM
[41] = Drug metabolism assessed as 2 nM Escherichia coli DH5alpha beta lactamase TEM-1 mediated formation of benzyl penicilloic acid at 1 mM after 30 mins by HPLC analysis; assay type: ADME; details: escherichia coli dh5[alpha], 0.5 h, 1000 µM
[42] = Drug metabolism assessed as 1 uM Escherichia coli DH5alpha beta lactamase TEM-1 mediated formation of benzyl penicilloic acid at 1 mM after 5 hrs by HPLC analysis; assay type: ADME; details: escherichia coli dh5[alpha], 1000 µM
Escherichia coli [43] = assay: Antibacterial activity against Escherichia coli ATCC 25922 in glutamine-free minimal media after 24 hrs by broth microdilution method; assay type: functional; details: ATCC 25922, 24 h

Compound | MIC90 (Escherichia coli [1]) | MIC90 (Escherichia coli [2]) | MIC90 (Escherichia coli [3]) | MIC90 (Escherichia coli [4]) | MIC90 (Escherichia coli [5]) | MIC90 (Escherichia coli [6]) | MIC90 (Escherichia coli [7]) | Drug metabolism [8] | Drug metabolism [9] | MIC90 (Escherichia coli [10]) | Drug metabolism [11] | MIC90 (Escherichia coli [12]) | MIC90 (Escherichia coli [13]) | Drug metabolism [15] | MIC90 (Escherichia coli [17]) | MIC90 (Escherichia coli [21]) | MIC90 (Escherichia coli [22]) | MIC90 (Escherichia coli [24]) | MIC90 (Escherichia coli [25]) | MIC90 (Escherichia coli [26]) | other results
C[C@@H](O)[C@H](NC(=O)[C@@H](N)CC[C@]1(O)CNC1=O)C(=O)O | 8 µM (≈ 2.31 µg/mL) | 8 µM (≈ 2.31 µg/mL) | 0.25 µM (≈ 0.0723 µg/mL) | 0.5 µM (≈ 0.145 µg/mL) | 0.5 µM (≈ 0.145 µg/mL) | 4 µM (≈ 1.16 µg/mL) | 0.25 µM (≈ 0.0723 µg/mL) | metabolite_detected | metabolite_detected | 0.5 µM (≈ 0.145 µg/mL) | metabolite_detected | 2 µM (≈ 0.579 µg/mL) | 16 µM (≈ 4.63 µg/mL) | metabolite_detected | 16 µM (≈ 4.63 µg/mL) | 2 µM (≈ 0.579 µg/mL) | 4 µM (≈ 1.16 µg/mL) | < 0.031 µM | 0.125 µM (≈ 0.0362 µg/mL) | 0.0625 µM (≈ 0.0181 µg/mL) | Activity (Escherichia coli [14]): inactive; Drug metabolism [16]: metabolite_detected; Activity (Escherichia coli [18]): inactive; Drug metabolism [19]: metabolite_detected; Drug metabolism [20]: metabolite_detected; Drug metabolism [23]: metabolite_detected; Activity (Staphylococcus aureus): Active
CC1(C)S[C@H]([C@H](NC(=O)Cc2ccccc2)C(=O)O)N[C@H]1C(=O)O |  |  |  |  |  |  |  |  |  |  |  |  |  |  |  |  |  |  |  |  | Drug metabolism [27]: metabolite_detected; Drug metabolism [28]: metabolite_detected; Drug metabolism [29]: metabolite_detected; Drug metabolism [30]: metabolite_detected; Drug metabolism [31]: metabolite_detected; Drug metabolism [32]: metabolite_detected; Drug metabolism [33]: metabolite_detected; Drug metabolism [34]: metabolite_detected
GENTAMICIN | 1.4 µM | 1.4 µM | 0.5 µM | 0.25 µM | 1 µM | 1.4 µM | 1 µM |  |  | 0.5 µM |  | 0.5 µM | 1.4 µM |  | 1.4 µM | 1 µM | 1.4 µM | < 0.25 µM | 1 µM | 0.5 µM | 
CC1(C)S[C@@H]2[C@H](NC(=O)[C@H](N)c3ccccc3)C(=O)N2[C@H]1C(=O)O [AMPICILLIN] | 128 µM (≈ 44.7 µg/mL) | 0.5 µM (≈ 0.175 µg/mL) | > 128 µM | 2 µM (≈ 0.699 µg/mL) | > 128 µM | 128 µM (≈ 44.7 µg/mL) | > 128 µM |  |  | > 128 µM |  | > 128 µM | > 128 µM |  | > 128 µM | > 128 µM | > 128 µM | > 128 µM | > 128 µM | > 128 µM | 
CC1(C)S[C@@H]2[C@H](NC(=O)Cc3ccccc3)C(=O)N2[C@H]1C(=O)O [PENICILLIN G] | 128 µM (≈ 42.8 µg/mL) | 4 µM (≈ 1.34 µg/mL) |  |  |  | 128 µM (≈ 42.8 µg/mL) |  |  |  |  |  |  | > 128 µM |  | > 128 µM |  | > 128 µM |  |  |  | Drug metabolism [35]: metabolite_detected; Drug metabolism [36]: metabolite_detected; Drug metabolism [37]: metabolite_detected; Drug metabolism [38]: metabolite_detected; Drug metabolism [39]: metabolite_detected; Drug metabolism [40]: metabolite_detected; Drug metabolism [41]: metabolite_detected; Drug metabolism [42]: metabolite_detected
N[C@@H](CC[C@]1(O)CNC1=O)C(=O)O |  |  |  |  |  |  |  | metabolite_detected | metabolite_detected |  | metabolite_detected |  |  | metabolite_detected |  |  |  |  |  |  | MIC90 (Escherichia coli [43]): > 128 µM; Drug metabolism [16]: metabolite_detected; Drug metabolism [19]: metabolite_detected; Drug metabolism [20]: metabolite_detected; Drug metabolism [23]: metabolite_detected
